Assay results as given in patent publication US8933224B2, “Triazine derivatives” (Pfizer Inc., priority 2013, dated 2015).

Assays:
[1] = molecular target: rat PDE10 enzyme (Rattus norvegicus (Rat), UniProt Q9QYJ6); experiment: PDE10 scintillation proximity assay (SPA), inhibition of rat PDE10 enzyme activity; format: biochemical; conditions: geometric mean of 2-4 determinations unless otherwise indicated (b: ≧5 determinations; c: single determination)
Procedure, shortened: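 SPA with fixed recombinant PDE10 (Sf21-expressed, Ni-NTA and Mono Q purified) converting ~20% of 20 nM ³H-cAMP in 50 mM TRIS pH 7.5, 1.3 mM MgCl2, 0.01% Brij, across an inhibitor range.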

[2] = molecular target: human recombinant PDE10 enzyme (PDE10A) (Homo sapiens, UniProt Q9Y233); experiment: PDE10 scintillation proximity assay (SPA), inhibition of human recombinant PDE10 enzyme activity; format: biochemical; conditions: geometric mean of 2-4 determinations unless otherwise indicated (b: ≧5 determinations; c: single determination)
Experimental: PDE10 activity was measured using a scintillation assay (SPA-based method) similar to that previously described by Seeger, T. F. et al., Brain Research 985 (2003) 113-126. The compounds' relative activity as PDE10 inhibitors was investigated by assaying a fixed amount of enzyme in the presence of the test compound and low substrate concentration (cAMP) such that an IC50 could be determined. […] The assay is performed in a 384-well format with 50 μL assay buffer (50 mM TRIS pH 7.5; 1.3 mM MgCl2; 0.01% Brij) containing enough PDE10 to convert ˜20% of 20 nM ^3H-cAMP, and a range of inhibitors. Reactions are incubated for 30 minutes at 25° C. The addition of 20 μL of 8 mg/ml yttrium silicate SPA beads (PerkinElmer) stops the reaction. The plates are sealed (TopSeal, PerkinElmer) and the beads are allowed to settle for 8 hrs, after which they are read on the Trilux Microbeta overnight. ^1Rat enzyme preparation:^2Human enzyme preparation:
Human PDE10A coding sequence (amino acids 21 to 797 from the sequence with accession number NP_001124162.1) was synthesized using codon optimization for insect expression and cloned into the baculovirus expression vector pFastBac (Invitrogen) engineered to include a N-terminal His6 affinity tag to aid in purification as described in Seeger, T. F. et al., Brain Research 985 (2003) 113-126. The recombinant Bacmid was isolated and used to transfect sf9 insect cells to generate a viral stock. To generate cell paste for purification, sf21 cells were infected with the virus stock and cells were harvested 72 hours after infection as described in Seeger, T. F. et al., Brain Research 985 (2003) 113-126. Insect cell paste was lysed and after centrifugation, the supernatant was chromatographed on Ni-NTA agarose (Qiagen) as described in Seeger, T. F. et al., Brain Research 985 (2003) 113-126. Ni-NTA agarose eluting fractions containing PDE10A were chromatographed on Superdex 200 (GE Healthcare Life Sciences) in 50 mM Tris HCl pH 7.5, 150 mM NaCl, 1 mM EDTA, 10% glycerol, 2 mM TCEP, 1.5 mM benzamidine, EDTA-free protease inhibitors (Roche), and 5 μM E-64.

Chain of rat PDE10 enzyme (Q9QYJ6 24-794): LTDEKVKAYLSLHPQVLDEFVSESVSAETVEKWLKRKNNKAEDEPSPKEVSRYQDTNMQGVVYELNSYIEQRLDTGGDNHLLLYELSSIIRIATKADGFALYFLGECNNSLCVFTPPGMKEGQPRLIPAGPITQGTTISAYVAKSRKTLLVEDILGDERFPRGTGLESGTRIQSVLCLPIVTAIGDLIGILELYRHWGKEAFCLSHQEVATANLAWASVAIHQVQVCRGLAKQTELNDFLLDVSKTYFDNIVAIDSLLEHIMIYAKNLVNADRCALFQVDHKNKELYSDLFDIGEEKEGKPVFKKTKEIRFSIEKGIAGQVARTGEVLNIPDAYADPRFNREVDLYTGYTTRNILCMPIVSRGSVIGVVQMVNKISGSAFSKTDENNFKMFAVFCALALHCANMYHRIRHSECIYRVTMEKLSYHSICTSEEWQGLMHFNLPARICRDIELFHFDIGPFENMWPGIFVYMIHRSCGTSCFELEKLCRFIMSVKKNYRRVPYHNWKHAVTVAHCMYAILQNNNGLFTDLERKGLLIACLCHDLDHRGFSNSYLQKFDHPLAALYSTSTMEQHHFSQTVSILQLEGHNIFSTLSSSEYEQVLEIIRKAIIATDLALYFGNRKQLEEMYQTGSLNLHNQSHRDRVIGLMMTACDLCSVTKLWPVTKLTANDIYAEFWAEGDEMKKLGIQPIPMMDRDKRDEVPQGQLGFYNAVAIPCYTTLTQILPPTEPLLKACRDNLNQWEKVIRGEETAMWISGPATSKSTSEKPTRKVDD

SMILES | IC50 [1] | IC50 [2]
Cc1nc([C@@H]2CCOC2)c2c(N3CCc4c(c(C(C)C)nn4C)C3)ncnn12 [Example 86, 7-methyl-4-[1-methyl-3-(propan-2-yl)-1,4,6,7-tetrahydro-5H-pyrazolo[4,3-c]pyridin-5-yl]-5-[(3S)-tetrahydrofuran-3-yl]imidazo[5,1-f][1,2,4]triazine] | 132 pM | 44.4 pM
Cc1nc([C@@H]2CCOC2)c2c(N3CCc4cnn(CC(C)C)c4C3)ncnn12 [Example 169, 7-methyl-4-[1-(2-methylpropyl)-1,4,5,7-tetrahydro-6H-pyrazolo[3,4-c]pyridin-6-yl]-5-[(3S)-tetrahydrofuran-3-yl]imidazo[5,1-f][1,2,4]triazine] | 367 pM | 755 pM
Cc1nc(C)c2c(n1)CCN(c1ncnn3c(C)nc([C@@H]4CCOC4)c13)C2 [Example 38, 2,4-dimethyl-6-{7-methyl-5-[(3S)-tetrahydrofuran-3-yl]imidazo[5,1-f][1,2,4]triazin-4-yl}-5,6,7,8-tetrahydropyrido[4,3-d]pyrimidine] | 1780 pM | 2920 pM
CCc1nc(C2CC2)nc2c1CN(c1ncnn3c(C)nc([C@@H]4CCOC4)c13)CC2 [Example 137] | 95 pM | 77.7 pM
Cc1cc2c(cn1)CN(c1ncnn3c(C)nc([C@@H]4CCOC4)c13)CC2 [Example 163, 6-methyl-2-{7-methyl-5-[(3S)-tetrahydrofuran-3-yl]imidazo[5,1-f][1,2,4]triazin-4-yl}-1,2,3,4-tetrahydro-2,7-naphthyridine] | 1190 pM | 1780 pM
Cc1nc([C@@H]2CCOC2)c2c(N3CCc4cnn(C5CC5)c4C3)ncnn12 [Example 5, 4-(1-Cyclopropyl-1,4,5,7-tetrahydro-6H-pyrazolo[3,4-c]pyridin-6-yl)-7-methyl-5-[(3S)-tetrahydrofuran-3-yl]imidazo[5,1-f][1,2,4]triazine] | 299 pM | 427 pM
Cc1nc([C@@H]2CCOC2)c2c(N3CCc4ccc(C(F)(F)F)nc4C3)ncnn12 [Example 157, 7-{7-methyl-5-[(3S)-tetrahydrofuran-3-yl]imidazo[5,1-f][1,2,4]triazin-4-yl}-2-(trifluoromethyl)-5,6,7,8-tetrahydro-1,7-naphthyridine] | 196 pM | 295 pM
Cc1nc(-c2ccccc2F)c2c(N3CCc4nc(C5CC5)ncc4C3)ncnn12 [Example 1, 2-Cyclopropyl-6-[5-(2-fluorophenyl)-7-methylimidazo[5,1-f][1,2,4]triazin-4-yl]-5,6,7,8-tetrahydropyrido[4,3-d]pyrimidine] | 4230 pM | 5930 pM
Cc1nc([C@@H]2CCOC2)c2c(N3CCc4cc(C5CC5)ncc4C3)ncnn12 [Example 161, 6-cyclopropyl-2-{7-methyl-5-[(3S)-tetrahydrofuran-3-yl]imidazo[5,1-f][1,2,4]triazin-4-yl}-1,2,3,4-tetrahydro-2,7-naphthyridine] | 163 pM | 468 pM
Cc1ccc2c(n1)CCN(c1ncnn3c(C)nc([C@@H]4CCOC4)c13)C2 [Example 139, 2-methyl-6-{7-methyl-5-[(3S)-tetrahydrofuran-3-yl]imidazo[5,1-f][1,2,4]triazin-4-yl}-5,6,7,8-tetrahydro-1,6-naphthyridine] | 270 pM | 279 pM
Cc1nc([C@@H]2CCOC2)c2c(N3CCc4cnn(C)c4C3)ncnn12 [Example 8, 7-Methyl-4-(1-methyl-1,4,5,7-tetrahydro-6H-pyrazolo[3,4-c]pyridin-6-yl)-5-[(3S)-tetrahydrofuran-3-yl]imidazo[5,1-f][1,2,4]triazine] | 2360 pM | 3410 pM
Cc1nc([C@@H]2CCOC2)c2c(N3CCc4cnn(CC5CCC5)c4C3)ncnn12 [Example 174, 4-[1-(cyclobutylmethyl)-1,4,5,7-tetrahydro-6H-pyrazolo[3,4-c]pyridin-6-yl]-7-methyl-5-[(3S)-tetrahydrofuran-3-yl]imidazo[5,1-f][1,2,4]triazine] | 359 pM | 345 pM
Cc1nc([C@@H]2CCOC2)c2c(N3CCc4nc(C5CC5)n(C)c(=O)c4C3)ncnn12 [Example 143, 2-cyclopropyl-3-methyl-6-{7-methyl-5-[(3S)-tetrahydrofuran-3-yl]imidazo[5,1-f][1,2,4]triazin-4-yl}-5,6,7,8-tetrahydropyrido[4,3-d]pyrimidin-4(3H)-one] | 106 pM | 219 pM
CCn1ncc2c1CN(c1ncnn3c(C)nc(-c4ccccc4F)c13)CC2 [Example 166, 4-(1-ethyl-1,4,5,7-tetrahydro-6H-pyrazolo[3,4-c]pyridin-6-yl)-5-(2-fluorophenyl)-7-methylimidazo[5,1-f][1,2,4]triazine] | 435 pM | 801 pM
Cc1nc2c(s1)CN(c1ncnn3c(C)nc([C@H]4CCOC4)c13)CC2 [Example 23, 7-methyl-4-(2-methyl-6,7-dihydro[1,3]thiazolo[5,4-c]pyridin-5(4H)-yl)-5-[(3R)-tetrahydrofuran-3-yl]imidazo[5,1-f][1,2,4]triazine] | < 5550 pM | 2530 pM
Cc1ncc2c(n1)CCN(c1ncnn3c(C)nc([C@@H]4CCOC4)c13)C2 [Example 134, 2-methyl-6-{7-methyl-5-[(3S)-tetrahydrofuran-3-yl]imidazo[5,1-f][1,2,4]triazin-4-yl}-5,6,7,8-tetrahydropyrido[4,3-d]pyrimidine] | 2440 pM | 4510 pM
Cc1nc(-c2ccccc2F)c2c(N3CCc4cnn(C5CC5)c4C3)ncnn12 [Example 156, 4-(1-cyclopropyl-1,4,5,7-tetrahydro-6H-pyrazolo[3,4-c]pyridin-6-yl)-5-(2-fluorophenyl)-7-methylimidazo[5,1-f][1,2,4]triazine] | 905 pM | 1000 pM
Cc1ccc2c(n1)CN(c1ncnn3c(C)nc([C@@H]4CCOC4)c13)CC2 [Example 72, 2-methyl-7-{7-methyl-5-[(3S)-tetrahydrofuran-3-yl]imidazo[5,1-f][1,2,4]triazin-4-yl}-5,6,7,8-tetrahydro-1,7-naphthyridine] | 255 pM | 539 pM
Cc1nc([C@@H]2CCOC2)c2c(N3CCc4nn(C)c(C5CC5)c4C3)ncnn12 [Example 44, 4-(3-cyclopropyl-2-methyl-2,4,6,7-tetrahydro-5H-pyrazolo[4,3-c]pyridin-5-yl)-7-methyl-5-[(3S)-tetrahydrofuran-3-yl]imidazo[5,1-f][1,2,4]triazine] | 102 pM | 110 pM
COc1nccc2c1CN(c1ncnn3c(C)nc([C@@H]4CCOC4)c13)CC2 [Example 28, 8-methoxy-2-{7-methyl-5-[(3S)-tetrahydrofuran-3-yl]imidazo[5,1-f][1,2,4]triazin-4-yl}-1,2,3,4-tetrahydro-2,7-naphthyridine] | 236 pM | 582 pM
COc1cnc2c(c1)CN(c1ncnn3c(C)nc([C@@H]4CCOC4)c13)CC2 [Example 29, 3-methoxy-6-{7-methyl-5-[(3S)-tetrahydrofuran-3-yl]imidazo[5,1-f][1,2,4]triazin-4-yl}-5,6,7,8-tetrahydro-1,6-naphthyridine] | 307 pM | 384 pM
Cc1nc([C@@H]2CCOC2)c2c(N3CCc4nc(C5CC5)oc4C3)ncnn12 [Example 9, 4-(2-Cyclopropyl-6,7-dihydro[1,3]oxazolo[5,4-c]pyridin-5(4H)-yl)-7-methyl-5-[(3S)-tetrahydrofuran-3-yl]imidazo[5,1-f][1,2,4]triazine] | 892 pM | 1140 pM
Cc1nc([C@@H]2CCOC2)c2c(N3Cc4c(cnn4C)C(C)C3)ncnn12 (stereo partly drawn) [Example 167, 4-(1,4-dimethyl-1,4,5,7-tetrahydro-6H-pyrazolo[3,4-c]pyridin-6-yl)-7-methyl-5-[(3S)-tetrahydrofuran-3-yl]imidazo[5,1-f][1,2,4]triazine] | 4470 pM | 4110 pM
CCc1nc(C)nc2c1CN(c1ncnn3c(C)nc(-c4ccccc4F)c13)CC2 [Example 131, 4-ethyl-6-[5-(2-fluorophenyl)-7-methylimidazo[5,1-f][1,2,4]triazin-4-yl]-2-methyl-5,6,7,8-tetrahydropyrido[4,3-d]pyrimidine] | 456 pM | 573 pM
Cc1nc(C2CCOCC2)c2c(N3CCc4ncccc4C3)ncnn12 [Example 95, 6[7-methyl-5-(tetrahydro-2H-pyran-4-yl)imidazo[5,1-f][1,2,4]triazin-4-yl]-5,6,7,8-tetrahydro-1,6-naphthyridine] | 10100 pM | 8820 pM
